Measured values from the NIST ThermoML archive (doi:10.1021/je050151n).
Values joined by “and” are separate entries in the source; they are usually repeats but may differ in a detail not shown here. Identical values can stand only once. ± gives the expanded uncertainty stated by the source.

Experiments:
[1] = 101.33 kPa, Liquid; for mass density: Vibrating tube method; for viscosity: Vibrating wire viscometry
[2] = refractive index (Na D-line) (dimensionless); settings: 293.15 K; 101.33 kPa; Liquid; Standard Abbe refractometry

Compound: CC(C)CCCCCCCOC(=O)c1ccccc1C(=O)OCCCCCCCC(C)C
- mass density ([1]; 283.16 K): 973.52 ± 1 kg/m3
- viscosity ([1]; 283.16 K): 267.36 ± 8.4 mPa·s
- mass density ([1]; 288.26 K): 969.85 ± 1 kg/m3
- viscosity ([1]; 288.26 K): 176.04 ± 4.7 mPa·s
- mass density ([1]; 293.21 K): 966.38 ± 1 kg/m3
- viscosity ([1]; 293.21 K): 123.07 ± 2.7 mPa·s and 122.75 ± 2.7 mPa·s
- mass density ([1]; 298.24 K): 962.82 ± 0.99 kg/m3
- viscosity ([1]; 298.24 K): 87.8 ± 1.6 mPa·s
- mass density ([1]; 303.21 K): 959.3 ± 0.99 kg/m3
- viscosity ([1]; 303.21 K): 64.84 ± 0.99 mPa·s
- mass density ([1]; 308.2 K): 955.78 ± 0.99 kg/m3
- viscosity ([1]; 308.2 K): 48.73 ± 0.7 mPa·s
- mass density ([1]; 313.21 K): 952.22 ± 0.98 kg/m3
- viscosity ([1]; 313.21 K): 37.57 ± 0.56 mPa·s
- refractive index [2]: 1.4845 ± 0.0007
